Inhibition and IC50 data for 15 compounds are collected here from patent publication US10266497B2 (ABIDE THERAPEUTICS, INC., priority 2017, dated 2019).

The target of experiment [1] is T1, MAGL (Mus musculus, UniProt O35678).
T1 sequence (O35678 1-303): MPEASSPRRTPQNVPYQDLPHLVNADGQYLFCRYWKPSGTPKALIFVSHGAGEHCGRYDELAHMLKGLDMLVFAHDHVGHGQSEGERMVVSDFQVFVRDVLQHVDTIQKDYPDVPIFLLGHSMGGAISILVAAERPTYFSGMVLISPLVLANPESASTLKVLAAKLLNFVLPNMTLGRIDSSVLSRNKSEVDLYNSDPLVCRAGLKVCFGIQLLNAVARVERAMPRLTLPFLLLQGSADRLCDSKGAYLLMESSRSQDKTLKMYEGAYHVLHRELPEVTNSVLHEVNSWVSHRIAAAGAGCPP
Nature of the experiment: In vitro competitive activity-based protein profiling, MAGL, mouse. Conditions: read-out: MAGL % inh. 1 μM (mouse).

Experiment [2] addresses T2, FAAH (Mus musculus, UniProt O08914).
T2 sequence (O08914 1-579): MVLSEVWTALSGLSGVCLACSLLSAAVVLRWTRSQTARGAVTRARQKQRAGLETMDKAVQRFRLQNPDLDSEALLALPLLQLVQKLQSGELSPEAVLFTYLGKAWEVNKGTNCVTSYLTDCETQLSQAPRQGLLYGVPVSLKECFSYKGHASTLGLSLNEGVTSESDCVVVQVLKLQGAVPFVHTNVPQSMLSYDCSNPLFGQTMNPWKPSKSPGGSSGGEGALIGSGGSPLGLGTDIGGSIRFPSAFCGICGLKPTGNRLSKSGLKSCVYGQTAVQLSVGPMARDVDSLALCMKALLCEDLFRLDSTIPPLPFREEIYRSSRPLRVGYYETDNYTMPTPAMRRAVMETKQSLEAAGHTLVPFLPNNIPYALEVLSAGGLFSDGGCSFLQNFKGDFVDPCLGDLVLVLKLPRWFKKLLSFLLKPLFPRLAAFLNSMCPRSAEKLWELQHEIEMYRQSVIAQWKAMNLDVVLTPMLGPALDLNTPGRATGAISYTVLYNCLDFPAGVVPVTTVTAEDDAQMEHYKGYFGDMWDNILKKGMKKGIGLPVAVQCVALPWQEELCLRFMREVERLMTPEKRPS
Nature of the experiment: In vitro competitive activity-based protein profiling, FAAH, mouse. Conditions: read-out: FAAH % inh. 1 μM (mouse).

In experiment [3] the target is T3, MAGL (Homo sapiens, UniProt Q99685).
T3 sequence (Q99685 1-303): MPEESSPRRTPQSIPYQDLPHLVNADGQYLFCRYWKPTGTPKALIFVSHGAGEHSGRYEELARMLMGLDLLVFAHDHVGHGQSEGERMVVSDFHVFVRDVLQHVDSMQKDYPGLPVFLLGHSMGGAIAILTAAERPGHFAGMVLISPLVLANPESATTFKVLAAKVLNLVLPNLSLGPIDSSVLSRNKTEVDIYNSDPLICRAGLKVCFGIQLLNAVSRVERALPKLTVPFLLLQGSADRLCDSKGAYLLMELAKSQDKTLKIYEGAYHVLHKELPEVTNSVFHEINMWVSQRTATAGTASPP
Nature of the experiment: In vitro competitive activity-based protein profiling, MAGL, human. The following applies: for inhibition at 1 µM: read-out: MAGL % inh. 1 μM (human); for inhibition at 10 µM: read-out: MAGL % inh. (human) at 10 uM.

The target of experiment [4] is T4, FAAH (Homo sapiens, UniProt O00519).
T4 sequence (O00519 1-579): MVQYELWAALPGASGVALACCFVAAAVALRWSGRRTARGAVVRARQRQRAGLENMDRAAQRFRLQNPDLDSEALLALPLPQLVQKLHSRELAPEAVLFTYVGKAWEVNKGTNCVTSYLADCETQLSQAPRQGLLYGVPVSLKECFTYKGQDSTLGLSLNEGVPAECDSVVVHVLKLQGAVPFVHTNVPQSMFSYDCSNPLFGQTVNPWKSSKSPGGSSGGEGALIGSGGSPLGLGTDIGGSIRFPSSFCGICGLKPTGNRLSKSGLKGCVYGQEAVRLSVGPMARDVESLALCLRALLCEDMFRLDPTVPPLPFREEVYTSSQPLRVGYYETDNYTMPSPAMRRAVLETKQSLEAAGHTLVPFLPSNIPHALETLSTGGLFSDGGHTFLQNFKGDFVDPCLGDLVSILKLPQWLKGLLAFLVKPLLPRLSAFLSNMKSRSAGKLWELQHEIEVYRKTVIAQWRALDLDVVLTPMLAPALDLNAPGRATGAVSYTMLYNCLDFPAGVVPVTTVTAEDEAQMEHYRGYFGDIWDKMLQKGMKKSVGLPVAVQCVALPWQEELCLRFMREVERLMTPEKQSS
Nature of the experiment: In vitro competitive activity-based protein profiling, FAAH, human. Conditions: for inhibition at 1 µM: read-out: FAAH % inh. 1 μM (human).

SMILES strings stand for the structures.

Take `O=C(O)c1ccn(C(=O)N2CCC3(CCN(Cc4ccc(C(F)(F)F)cc4N4CCC(F)CC4)CC3)C2)n1` [Example 186, 1-(8-(2-(4-fluoropiperidin-1-yl)-4-(trifluoromethyl)benzyl)-2,8-diazaspiro[4.5]decane-2-carbonyl)-1H-pyrazole-3-carboxylic acid]: the inhibition at 1 µM on MAGL [1] is above 75%; at FAAH [2] it was 0 to 25%; at MAGL [3], 50 to 75%; on FAAH [4], 0 to 25%.

Usually IC50 stands for the midpoint of a concentration-inhibition curve. A lower IC50 goes with higher potency. With `CN(Cc1cc(Cl)ccc1C(F)(F)F)CC1CCN(C(=O)n2cc(Cl)c(C(=O)O)n2)CC1` [Example 54, 4-chloro-1-(4-(((5-chloro-2-(trifluoromethyl)benzyl)(methyl)amino)methyl)piper-idine-1-carbonyl)-1H-pyrazole-3-carboxylic acid], the inhibition at 1 µM on MAGL [1], at FAAH [2], at MAGL [3] and at FAAH [4] was above 75% in each case. Besides, the IC50 at FAAH [4] is 100 to 1000 nM.

On to `O=C(O)c1ccn(C(=O)N2CCN(Cc3cccc(Oc4ccncn4)c3)CC2)n1` [Example 63, 1-(4-(3-(pyrimidin-4-yloxy)benzyl)piper-azine-1-carbonyl)-1H-pyrazole-3-carboxylic acid], for which the inhibition at 1 µM on MAGL [1] fell in the range of 0 to 25%; at FAAH [2], 0 to 25%; at MAGL [3] it was 25 to 50%; at FAAH [4], 50 to 75%.

In the case of `C#Cc1ccc(CN2CCN(C(=O)n3ccc(C(=O)O)n3)CC2)cc1` [Example 50, 1-(4-(4-ethynylbenzyl)piper-azine-1-carbonyl)-1H-pyrazole-3-carboxylic acid], the inhibition at 1 µM at MAGL [1] and at FAAH [2] was 0 to 25% in each case. For the same compound, the inhibition at 10 µM on MAGL [3] and at FAAH [4] (read-out: FAAH % inh. (human) at 10 uM) was above 75% throughout.

Take `O=C(O)c1ccn(C(=O)N2CCN(Cc3nc4ccccc4s3)CC2)n1` [Example 189, 1-(4-(benzo[d]thiazol-2-ylmethyl)piperazine-1-carbonyl)-1H-pyrazole-3-carboxylic acid]: the inhibition at 1 µM was above 75% at MAGL [1], 0 to 25% at FAAH [2], above 75% at MAGL [3] and 0 to 25% at FAAH [4].

With `NC(=O)c1ccn(C(=O)N2CCN(Cc3cnccc3C(F)(F)F)CC2)n1` [Example 175, 1-(4-((4-(trifluoromethyl)pyridin-3-yl)methyl)piperazine-1-carbonyl)-1H-pyrazole-3-carboxamide], the inhibition at 1 µM at MAGL [1], on FAAH [2], on MAGL [3] and at FAAH [4] was above 75% in each case. Moreover, the 50% inhibitory concentration (IC50) on FAAH [4] is 100 to 1000 nM.

As to `NC(=O)c1ccn(C(=O)N2CCN(Cc3ccc(N4CCOCC4)cc3Cl)CC2)n1` [Example 165, 1-(4-(2-chloro-4-morpholinobenzyl)piperazine-1-carbonyl)-1H-pyrazole-3-carboxamide], the inhibition at 1 µM on MAGL [1] was above 75%; on FAAH [2] it was 50 to 75%; on MAGL [3], above 75%; on FAAH [4], above 75%.

Consider `O=C(O)c1ccn(C(=O)N2CCN(Cc3ccc(Oc4ccc(Cl)cc4)cc3)CC2)n1` [Example 45, 1-(4-(4-(4-chlorophenoxy)benzyl)piperazine-1-carbonyl)-1H-pyrazole-3-carboxylic acid], for which the inhibition at 1 µM at MAGL [1], at FAAH [2], on MAGL [3] and on FAAH [4] was above 75% throughout. Besides, the IC50 at FAAH [4] lay within 100 to 1000 nM.

Turning to `O=C(O)c1nn(C(=O)N2CC3CN(Cc4ccc(-c5nnn[nH]5)cc4C(F)(F)F)CC3C2)cc1Cl` (centres unmarked) [Example 141, 1-(5-(4-(1H-tetrazol-5-yl)-2-(trifluoromethyl)benzyl)octahydro-pyrrolo[3,4-c]pyrrole-2-carbonyl)-4-chloro-1H-pyrazole-3-carboxylic acid], the inhibition at 1 µM at MAGL [1] and on FAAH [2] was 0 to 25% throughout. For the same compound, the inhibition at 10 µM at MAGL [3] is above 75%. Moreover, at FAAH [4] (read-out: FAAH % inh. (human) at 50 uM), the inhibition at 50 µM was above 75%.

As to `O=C(O)c1ccn(C(=O)N2C[C@H]3C[C@@H](Oc4cccc(-c5ccccc5)c4)C[C@H]3C2)n1` [Example 164, 1-(cis-5-([1,1′-biphenyl]-3-yloxy)octahydro-cyclopenta[c]pyrrole-2-carbonyl)-1H-pyrazole-3-carboxylic acid], the inhibition at 1 µM on MAGL [1] is above 75%; on FAAH [2], 25 to 50%; on MAGL [3], above 75%; on FAAH [4], above 75%. This compound also yielded an IC50 on FAAH [4] of 100 to 1000 nM.

Consider `O=C(O)c1ccn(C(=O)N2CCN(Cc3ccc(C(F)(F)F)cc3-c3nnco3)CC2)n1` [Example 69, 1-(4-(2-(1,3,4-oxadiazol-2-yl)-4-(trifluoromethyl)benzyl)piperazine-1-carbonyl)-1H-pyrazole-3-carboxylic acid], for which the inhibition at 1 µM at MAGL [1] was above 75%; at FAAH [2] it was 0 to 25%; at MAGL [3], above 75%; on FAAH [4], 0 to 25%.

With `O=C(O)c1ccn(C(=O)N2CC3CN(Cc4cccc(C(F)(F)F)c4)CC3C2)n1` (centres unmarked) [Example 122, 1-(5-(3-(trifluoromethyl)benzyl)octahydro-pyrrolo[3,4-c]pyrrole-2-carbonyl)-1H-pyrazole-3-carboxylic acid], the inhibition at 1 µM was in the range of 25 to 50% at MAGL [1], 50 to 75% at FAAH [2], 50 to 75% on MAGL [3] and 0 to 25% at FAAH [4].

Regarding `NC(=O)c1ccn(C(=O)N2CCN(Cc3ccc(C(F)(F)F)cc3N3CCCC3)CC2)n1` [Example 173, 1-(4-(2-(pyrrolidin-1-yl)-4-(trifluoromethyl)benzyl)piperazine-1-carbonyl)-1H-pyrazole-3-carboxamide], the inhibition at 1 µM was above 75% at MAGL [1], 50 to 75% on FAAH [2], above 75% on MAGL [3] and above 75% at FAAH [4].

With `NC(=O)c1ccn(C(=O)N2CCC3(CCN(Cc4cc(Cl)ccc4C(F)(F)F)C3)CC2)n1` [Example 99, 1-(2-(5-chloro-2-(trifluoromethyl)benzyl)-2,8-diazaspiro[4.5]decane-8-carbonyl)-1H-pyrazole-3-carboxamide], the inhibition at 1 µM at MAGL [1], on FAAH [2], at MAGL [3] and at FAAH [4] was above 75% in each case.

For `O=C(O)c1ccn(C(=O)N2CCC3(CCN(Cc4cc(Cl)cc(C(F)(F)F)c4)C3)CC2)n1` [Example 72, 1-(2-(3-chloro-5-(trifluoromethyl)benzyl)-2,8-diazaspiro[4.5]decane-8-carbonyl)-1H-pyrazole-3-carboxylic acid], the inhibition at 1 µM on MAGL [1] is above 75%; at FAAH [2], 0 to 25%; on MAGL [3] it was above 75%; on FAAH [4], 0 to 25%. The same compound showed an IC50 at FAAH [4] of 1000 to 10000 nM.
